According to PMC8403366, “Functional significance of gain-of-function H19 lncRNA in skeletal muscle differentiation and anti-obesity effects” (Genome Medicine, 2021):

Legend:
Assay type in all cases: in vivo, mouse
C57BL/6 J mice [1] = assay: Echocardiography and diaphragm/aorta histology; details: vs AGR-Scr
Description: The heart function of the mice was assessed using functional rodent echocardiography. After their body hair from the neckline to mid chest level was removed with hair removal cream, the mice were anesthetized with 2% isoflurane in the induction chamber and placed in a supine position atop a heating pad to maintain body temperature. The concentration of isoflurane was adjusted to keep a target heart rate of 450 ± 50 beats per minute (bpm). A rectal probe was gently inserted to continuously monitor and adjust body temperature (37.0 °C ± 0.5 °C) via the heating pad. Electrode gel was applied to all four paws, which were then taped to the ECG electrodes. The mice were subjected to transthoracic echo using Vevo 2100 (MS-550D, 22–55 MHz, VisualSonics Inc.).
Tissues were fixed in 10% Neutral Buffered Formalin embedded in paraffin, sectioned at 5 μm, and stained with hematoxylin/eosin (H&E). Detection of H19 expression using a RNAScope probe (designed by Advanced Cell Diagnostics) was performed on mouse tissues with a RNAScope 2.0 High Definition Assay kit according to the manufacturer's instructions (Advanced Cell Diagnostics). The images were visualized with a Zeiss Axioskop2 plus Microscope, and the slides were scanned on the Automated Cellular Image System III for quantification by digital image analysis.

C57BL/6 J mice [2] = assay: Skeletal muscle immunostaining, fiber number/area, fiber typing, SDH staining
Description: Skeletal muscles were collected and fixed in 10% Neutral Buffered Formalin at 4 °C for 1 h, followed by 10% sucrose/PBS overnight and then 18% sucrose/PBS overnight at 4 °C before being frozen embedded and sectioned. For immunostaining, frozen cross-sections of muscle were fixed in 4% paraformaldehyde for 5 min, washed, permeabilized with 0.5% Triton X-100, and stained with indicated primary antibodies. After extensive washing in PBS-0.05% Triton X-100, the secondary antibody was added and incubated for 1 h. After extensive washing in PBS-0.05% Triton X-100, nuclei were stained with Vectashield Antifade Mounting Medium with DAPI (Vector Laboratories). Images of laminin-stained fibers were taken by Zeiss microscope. Muscle cross-sectional area and fiber numbers were quantified by ImageJ. Immunostained tissue slides were obtained with Vectra Polaris Multispectral Imaging scanner (PerkinElmer). The quantification of IF staining density was performed by Image-pro plus 6.0 (Media Cybernetics) and calculated based on the average staining intensity and the percentage of positively stained cells. To quantify myotube fusion, fusion index was calculated by dividing the number of nuclei in MHC-positive myotubes with ≥ 3 nuclei by the total number of nuclei analyzed in a field.
Muscle fiber-type immunofluorescence staining was performed with antibodies to MHC type I (supernatant, DSHB, BA-D5), MHC type IIa (supernatant, DSHB, SC-71), and MHC type IIb (supernatant, DSHB, BF-F3), as previously described. Type IIx fibers are not recognized by these antibodies and appeared black. Succinic dehydrogenase (SDH) staining was used to assess metabolic fiber type switch. Frozen cross-sections of muscle were allowed to equilibrate to room temperature and then incubated in a solution containing Nitroblue tetrazolium and sodium succinate for 20 min. Sections were washed 3 times in PBS, dehydrated in ethanol, and mounted with an aqueous mounting medium (Vector Laboratories). The antibodies used are listed in the Additional file 3: Table S3.

Lep^Ob/Ob mice = assay: Leptin deficiency-induced obesity model
Description: The mice used in this study were purchased from Jackson Lab as follows: Lep^Ob/Ob (stock 000632), C57BL/6 J (stock 000664). All animals were from a C57BL/6 J background and housed with a 12 h light/12 h dark cycle in the animal facility with free access to water and food. 4 to 10 mice were used in each group. Exact numbers for each experiment are included in the figure legends.
To determine the effects of H19-Rgof with a skeletal muscle enrichment peptide agrin (AGR-H19-Rgof) on WT C57BL/6 J or Lep^Ob/Ob mice, AGR-tagged oligonucleotides were used. The synthesis and sequence information of AGR-tagged RNA oligonucleotides are described in “Synthesis of H19-Rgof mimics, AGR-H19-Rgof mimics, and Pharmacokinetics (PK) studies.” AGR-Scr (conjugated to scramble oligonucleotides), H19-Rgof, or AGR-H19-Rgof mimics were injected at a dose of 1 mg/kg intraperitoneally into 3-week-old male and female mice. For AGR-H19-Rgof treatment in HFD (Cat # D12492, Research Diets, Inc.)-fed mice, male C57BL/6 J mice were fed with a HFD starting at 6 weeks of age. The AGR-H19-Rgof and AGR-Scr mimics were injected at a dose of 0.5 or 1 mg/kg intraperitoneally every other day starting 2 weeks after the initiation of HFD feeding. Body weight was measured weekly. The general health condition, grooming, and behavior of all animals were monitored daily, and injection sites were checked for signs of redness or edema.
Unless otherwise indicated, mice were fasted for 4–6 h, anesthetized with isoflurane, and sacrificed by heart puncture. Tissues were dissected, weighed, and either dipped in liquid nitrogen or fixed for immunohistochemistry analysis. Individual muscle was dissected on one side of the body and weighed. […]
H&E staining was performed in paraffin-embedded livers to visualize the pattern of lipid accumulation and inflammatory status. […] Adipocyte size (from WAT) was determined with ImageJ software. Sections from five animals per group were used and at least 500 adipocytes per animal were measured from multiple fields.

C57BL/6 J mice [3] = assay: Liver Oil Red O / H&E staining and WAT adipocyte size
Description: H&E staining was performed in paraffin-embedded livers to visualize the pattern of lipid accumulation and inflammatory status. Lipid droplet accumulation in the liver was visualized using Oil Red O (O0625, Sigma) staining of frozen liver sections prepared in an optimum cutting temperature (O.C.T.) compound (4585, Fisher Scientific). Histopathology images were acquired with a light microscope (Olympus). Adipocyte size (from WAT) was determined with ImageJ software. Sections from five animals per group were used and at least 500 adipocytes per animal were measured from multiple fields.

[4] = HFD-fed mice, staining intensity, n = 8
[5] = WT mice, 1 mg/kg i.p. every 3 days, 12 weeks, immunofluorescence, n = 8
[6] = WT mice, MHC isoform immunolabeling, vs AGR-Scr, n = 5

N-terminal-ELTNEIPAELTNEIPA-Linker-5'-[2’-F-C][2’-F-U][2’-F-C][2’-F-U][2’-F-U][2’-F-U][2’-F-A][2’-F-U][2’-F-U][2’-F-U][2’-F-C][2’-F-U][2’-F-G][2’-F-A][2’-F-G][2’-F-C][2’-F-U][2’-F-U][2’-F-U][2’-F-C][2’-F-C][2’-F-U][2’-F-A][2’-F-U][2’-F-C][2’-F-U][2’-F-U][2’-F-U][2’-F-C][2’-F-C]-3' [AGR-H19-Rgof]
LV end diastolic diameter, LV stroke volume, LV ejection fraction, LV fractional shortening, interventricular septal end diastole (C57BL/6 J mice [1]; echocardiography, n = 10): minimally affected
aorta tunica media and tunica adventitia thickness (C57BL/6 J mice [1]; histology, n = 6): unaltered
diaphragm thickness (C57BL/6 J mice [1]; histology, n = 6): increased thickness
fiber area in TA (C57BL/6 J mice [2]; HFD-fed mice, n = 10, 9): increased
Ub-DMD in TA (C57BL/6 J mice [2]; [4]): reduced
expression of DMD in TA (C57BL/6 J mice [2]; [4]): increased
DMD protein status in TA (C57BL/6 J mice [2]; [5]): increased DMD protein status
DRP2 protein status in TA (C57BL/6 J mice [2]; [5]): improved protein status
nNOS protein status in TA (C57BL/6 J mice [2]; [5]): improved protein status
β-dystroglycan protein status in TA (C57BL/6 J mice [2]; [5]): improved protein status
fast glycolytic fiber type IIb in QUAD, SOL and TA (C57BL/6 J mice [2]; [6]): substantial shift toward
percentage of fast oxidative fiber type IIa in QUAD, SOL and TA (C57BL/6 J mice [2]; [6]): reduced percentage
SDH+ fibers in QUAD (C57BL/6 J mice [2]; WT mice, vs AGR-Scr, n = 5): reduced SDH+
SDH+ in TA and GAS (C57BL/6 J mice [2]; WT mice, vs AGR-Scr, n = 5): minimally altered
SDH+ muscle staining in SOL and EDL (C57BL/6 J mice [2]; WT mice, vs AGR-Scr, n = 5): increased SDH+
type I fibers in SOL (C57BL/6 J mice [2]; WT mice, vs AGR-Scr, n = 5): marginally reduced
type II fibers in SOL (C57BL/6 J mice [2]; WT mice, vs AGR-Scr, n = 5): increased
utrophin protein status in the quadriceps (QUAD) (C57BL/6 J mice [2]; WT mice, vs AGR-Scr, n = 8): increased
muscle fiber area (C57BL/6 J mice [2]; WT mice, vs Scr mimics): increased
number of muscle fibers (SOL, EDL, TA, GAS, QUAD) (C57BL/6 J mice [2]; WT mice, vs Scr mimics, n = 5): increased number
fatty acid deposition in livers (Lep^Ob/Ob mice; Lep^ob/ob mice, Oil Red O, n = 8, 8): significantly improved
muscle mass (Lep^Ob/Ob mice; Lep^ob/ob mice, vs AGR-Scr, n = 10, 9): increased
body weight (Lep^Ob/Ob mice; male Lep^ob/ob mice, 8 weeks post-treatment, vs AGR-Scr, n = 10, 9): reduced
fatty acid deposition in the liver and WAT (C57BL/6 J mice [3]; HFD-fed mice, H&E and Oil Red O, liver weight): significantly reduced
adipocyte size in WAT (C57BL/6 J mice [3]; WT male mice on chow, H&E, vs AGR-Scr, n = 5): reduced
fatty acid accumulation in the liver (C57BL/6 J mice [3]; WT male mice on chow, Oil Red O, vs AGR-Scr, n = 8): reduced
